Assay [1] concerns Malassezia pachydermatis (ATCC14522 strain). Briefly: Malassezia otitis externa effect test (dog) (Test Example 3). In kind it is in vivo, dog (Beagle). Details: Total score (redness, earwax, itching, rash) Immediately before treatment / Total score (redness, earwax, itching, rash) 7 Days after treatment: scale not given here. To be noted: for Microbial count (cfu/ml) 7 Days after treatment: 500 ppm agent solution for 1 minute; for Microbial count (cfu/ml) Immediately before treatment: baseline before 500 ppm agent solution; for Total score (redness, earwax, itching, rash) 7 Days after treatment: 5 mL of 500 ppm agent solution for 1 minute; for Improvement rate (%) of microbial count / Improvement rate (%) of symptom total score: 500 ppm for 1 minute, 7 days after treatment; for Total score (redness, earwax, itching, rash) Immediately before treatment: baseline 7 days after inoculation, before 500 ppm agent solution. On the procedure:
Test Example 3: Malassezia Otitis Externa Effect Test (Dog) Test Variety: Beagle (19 to 20-Month-Old)
Test Microbial Strain: Malassezia Pachydermatis (ATCC14522 Strain)
A colony of the Malassezia microbe pre-cultured (7 days, 30° C.) on a Sabouraud agar medium was suspended in sterilized physiological saline (microbial concentration of 1.0 × 10^6 cells/mL), and 0.1 mL of the resulting suspension was inoculated into both ears of the test animal. 7 Days after the inoculation, both ears were filled with 5 mL of an agent solution (sterilized physiological saline solution supplemented with 5% DMSO) prepared to have a concentration of the test compound of 500 ppm, and after 1 minute, thoroughly washed with sterilized physiological saline solution.
At the same time, the number of the Malassezia microbe present inside the ears of the sample was also investigated by the following method.
The surface of the ear canal was scraped three times using a cotton swab to collect the microbe, and the collected microbe was suspended in 1 mL of PBS (containing 8 g of sodium chloride, 2.9 g of disodium hydrogen phosphate, 0.2 g of potassium chloride, and 0.2 g of potassium dihydrogen phosphate in 1000 mL) supplemented with 1% v/v of Tween80 (polyoxyethylene sorbitan monooleate: manufactured by Kanto Chemical Co., Ltd.) together with the cotton swab. The resulting suspension was serially diluted 10-fold with the PBS, and 0.1 mL thereof was applied to a CHROMagar Malassezia/Candida medium (trade name; peptone, special enzyme substrate mixture, chloramphenicol, olive oil, agar) and cultured at 30° C. for 4 days. After that, the colonies having a pink to purple color were counted, the microbial count score was calculated, and the improvement rate was determined.

Assay [2] deals with Malassezia pachydermatis (IFM56528). Briefly: Antifungal activity test, fungicidal concentration after 1 minute contact (Test Examples 10-1 and 10-2). In kind it is cell-based. To be noted: for half fungicidal concentration MFC50: M. pachydermatis IFM56528, colony formation inhibition rate of 50%; for 90% fungicidal concentration MFC90: M. pachydermatis IFM56528, colony formation inhibition rate of 90%; for MFC: Malassezia pachydermatis, 1 min, M. pachydermatis IFM56528, no colony growth, read-out: Minimum fungicidal concentration MFC100. On the procedure: Test Example 10-1: Antifungal Activity Test
Test Compound: Compound No. 6
Test Microbial Strain: Malassezia Pachydermatis (IFM56528)
The Malassezia microbe (Malassezia pachydermatis) cultured for 5 to 7 days in a Sabouraud medium (1% peptone, 4% dextrin, 1.5% agar) was suspended in physiological saline, and a suspension thereof was prepared in such a way as to have an absorbance of 0.025 at 600 nm. Thereto, the test compound dissolved in DMSO was added in such a way as to provide a final concentration of 70, 65, 64, 60, 55, 45, 40, 35, 32, 20, 18, or 8 ppm, and after 1 minute, 10 µL of the suspension and 10 mL of physiological saline were placed in a syringe and stirred, and the syringe was connected to a 37 mm Quality Monitor (manufactured by Pall Corporation) followed by filtration and washing. The membrane filter was impregnated as it was with the Sabouraud medium and subjected to culturing at 32° C. for 72 hours, the presence or absence of colony growth was investigated, and the concentration at which there was no colony growth was determined as the minimum fungicidal concentration (MFC100). When there was colony growth, the number of colonies formed there (the number of colonies in the inventive plot) and the number of colonies in a solvent to which the test compound was not added (the number of colonies in the non-agent treated plot) were measured, the colony formation inhibition rate (%) was determined according to the following expression, and the concentration showing a colony formation inhibition rate of 90% was determined as the 90% fungicidal concentration (MFC90), and the concentration showing a colony formation inhibition rate of 50% was determined as half fungicidal concentration (MFC50).
Colony formation inhibition rate (%) = [(number of colonies in non-agent treated plot - number of colonies in inventive plot)/number of colonies in non-agent treated plot] × 100
Test Example 10-2: Antifungal Activity Test
Test Compound: Compound No. 1
The Malassezia microbe (Malassezia pachydermatis) cultured for 5 to 7 days in a Sabouraud medium (1% peptone, 4% dextrin, 1.5% agar) was suspended in physiological saline, and a suspension thereof was prepared in such a way as to have an absorbance of 0.025 at 600 nm. Thereto, the test compound dissolved in DMSO was added in such a way as to provide a final concentration of 500, 250, 200, 190, 180, 170, 160, 150, 140, 130, 125, 120, 110, 100, 90, 80, 70, or 64 ppm, and after 1 minute, 10 µL of the suspension and 10 mL of physiological saline were placed in a syringe and stirred, and the syringe was connected to a 37 mm Quality Monitor (manufactured by Pall Corporation) followed by filtration and washing. The membrane filter was impregnated as it was with the Sabouraud medium and subjected to culturing at 32° C. for 72 hours, the presence or absence of colony growth was investigated, and the concentration at which there was no colony growth was determined as the minimum fungicidal concentration (MFC100). When there was colony growth, the number of colonies formed there (the number of colonies in the inventive plot) and the number of colonies in a solvent to which the test compound was not added (the number of colonies in the non-agent treated plot) were measured, the colony formation inhibition rate (%) was determined according to the following expression, and the concentration showing a colony formation inhibition rate of 90% was determined as the 90% fungicidal concentration (MFC90), and the concentration showing a colony formation inhibition rate of 50% was determined as half fungicidal concentration (MFC50).

Converted amounts (≈) assume the structure as drawn.

Consider `Cc1ccc(-c2nc(C#N)[nH]c2Cl)cc1` [Compound No. 1, 5-Chloro-4-(4-methylphenyl)-1H-imidazole-2-carbonitrile], for which, in assay [1] (left ear canal swab), the “Microbial count (cfu/ml) 7 Days after treatment” value (from here on “Microbial count (cfu/ml) 7 Days”) was 30 cfu/ml and the “Microbial count (cfu/ml) Immediately before treatment” value is 900 cfu/ml. For the same compound, in assay [1] (left ear), the “Total score (redness, earwax, itching, rash) 7 Days after treatment” value (shortened to “Total score … after treatment”) was found to be 1; the “Improvement rate (%) of microbial count” value was determined as 96.7%; the “Improvement rate (%) of symptom total score” value worked out at 67%; the “Total score (redness, earwax, itching, rash) Immediately before treatment” value was 3. Further, in assay [1] (right ear canal swab), the “Microbial count (cfu/ml) 7 Days” value is recorded as 30 cfu/ml and the “Microbial count (cfu/ml) Immediately before treatment” value is given as 1,300 cfu/ml. In assay [1] (right ear), the “Total score … after treatment” value is on record as 1; the “Improvement rate (%) of microbial count” value stood at 97.7%; the “Improvement rate (%) of symptom total score” value worked out at 67%; the “Total score (redness, earwax, itching, rash) Immediately before treatment” value is on record as 3. Further, in assay [2], the “half fungicidal concentration MFC50” value stood at 64 ppm, the “90% fungicidal concentration MFC90” value is recorded as 130 ppm and the MFC turned out to be 160 µg/mL (≈ 735 µM).
Turning to `Cc1ccc(-c2nc(C#N)[nH]c2Cl)cc1Cl` [Compound No. 6, 5-chloro-4-(3-chloro-4-methylphenyl)-1H-imidazole-2-carbonitrile], in assay [1] (left ear canal swab), the “Microbial count (cfu/ml) 7 Days” value is 20 cfu/ml and the “Microbial count (cfu/ml) Immediately before treatment” value is on record as 5,300 cfu/ml. In addition, in assay [1] (left ear), the “Total score … after treatment” value came out at 0; the “Improvement rate (%) of microbial count” value worked out at 99.6%; the “Improvement rate (%) of symptom total score” value worked out at 100%; the “Total score (redness, earwax, itching, rash) Immediately before treatment” value is 3. In assay [1] (right ear canal swab), the “Microbial count (cfu/ml) 7 Days” value was determined as 20 cfu/ml and the “Microbial count (cfu/ml) Immediately before treatment” value is on record as 2,800 cfu/ml. In addition, in assay [1] (right ear), the “Total score … after treatment” value is reported as 0; the “Improvement rate (%) of microbial count” value was 99.3%; the “Improvement rate (%) of symptom total score” value is given as 100%; the “Total score (redness, earwax, itching, rash) Immediately before treatment” value is reported as 3. In addition, in assay [2], the “half fungicidal concentration MFC50” value amounted to 8 ppm, the “90% fungicidal concentration MFC90” value came to 20 ppm and the MFC came out at 40 µg/mL (≈ 159 µM).
